Assay results as given in patent US7709475B2, “Selective inhibitors against Cdk4 and Cdk6 having aminothiazole skeleton” (Banyu Pharmaceutical Co., Ltd., priority 2004, dated 2010).
pIC50: −log10 of the molar value.

What was measured:
[1] = target: T1, cyclin D2-Cdk4 (Homo sapiens, UniProt P11802); test: Cdk4 inhibitory action: cyclin D2-Cdk4 kinase activity, 33P-ATP, RB peptide substrate; type: biochemical; conditions: cyclin D2-Cdk4, 50 μM ATP
T1 construct: made in house; host or cells: insect cell Sf9 (baculovirus)
T1 sequence (P11802 whole entry): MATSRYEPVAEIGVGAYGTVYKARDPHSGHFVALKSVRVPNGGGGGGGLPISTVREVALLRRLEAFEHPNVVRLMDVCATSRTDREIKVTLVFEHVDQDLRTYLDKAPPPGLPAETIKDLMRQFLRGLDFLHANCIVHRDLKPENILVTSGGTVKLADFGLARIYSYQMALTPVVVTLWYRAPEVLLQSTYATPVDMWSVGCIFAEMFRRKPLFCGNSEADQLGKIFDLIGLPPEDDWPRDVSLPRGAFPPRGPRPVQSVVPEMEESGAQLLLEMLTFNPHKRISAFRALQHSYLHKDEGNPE
T1 sequence (P30279 whole entry partner): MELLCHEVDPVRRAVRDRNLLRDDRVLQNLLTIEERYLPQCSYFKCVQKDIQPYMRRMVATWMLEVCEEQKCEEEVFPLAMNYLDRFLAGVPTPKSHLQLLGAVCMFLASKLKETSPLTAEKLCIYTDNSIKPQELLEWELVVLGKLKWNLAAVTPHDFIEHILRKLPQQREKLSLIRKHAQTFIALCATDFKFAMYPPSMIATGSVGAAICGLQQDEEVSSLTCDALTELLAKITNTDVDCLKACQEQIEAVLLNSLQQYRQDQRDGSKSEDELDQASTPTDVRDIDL
From the text: First, the cDNA of Cdk4, and the cDNA of a fusion protein of cyclin D2, an activating factor of Cdk4, and glutathione S-transferase, were integrated into a baculovirus expression vector to prepare a recombinant baculovirus. This was co-transfected into insect cell Sf9 to express an active complex of the cyclin D2/glutathione S-transferase fusion protein-Cdk4 at a high level. The cells were recovered and solubilized, then the active complex was adsorbed onto Glutathione Sepharose, and a cyclin D2-Cdk4 complex was recovered using Precision Protease and was purified by HPLC column chromatography [EMBO J., Vol. 15, 7060-7069 (1996)].
For the measurement of the activity of cyclin D2-Cdk4, a synthetic peptide (Arg-Pro-Pro-Thr-Leu-Ser-Pro-Ile-Pro-His-Ile-Pro-Arg) corresponding to amino acid residue No. 775-787 of RB protein was used as the substrate [EMBO J., Vol. 15, 7060-7069 (1996)].
The reaction was performed by partially modifying the method of Kitagawa et al. [Oncogene, Vol. 7, 1067-1074 (1992)]. The volume of the reaction solution was 21.1 μL, and the composition of the reaction buffer (R buffer) was 20 mM Tris-hydrochloric acid buffer (pH 7.4)/10 mM magnesium chloride/4.5 mM 2-mercaptoethanol/1 mM ethylene glycol bis(β-aminoethyl ether)-N,N,N′,N′-tetraacetic acid (EGTA). To this reaction buffer, purified cyclin D2-Cdk4, 100 μM of the substrate peptide, 50 μM of non-labeled adenosine triphosphate (ATP), and 1 μCi of [γ-33P]-labeled ATP (2000 to 4000 Ci/mmole) were added to react at 30° C. for 45 minutes. Then, 10 μL of 350 mM phosphate buffer was added to the reaction system to terminate the reaction. The substrate peptide was adsorbed onto P81 paper filter on a 96-well plate, and then washed several times with 75 mM phosphate buffer. The radioactivity of the substrate peptide was measured with a liquid scintillation counter. The [γ-33P]-labeled ATP was purchased from Daiichi Pure Chemicals Co., Ltd.
Addition of the test compound to the reaction system was carried out by first preparing a dilution series of solutions of the compound in dimethylsulfoxide (DMSO), and adding 1.1 μL of the dilutions. A control was provided by adding 1.1 μL of DMSO to the reaction system.
A representative compound of the compounds according to the invention was selected, and the IC50 value of this compound for the cyclin D2-Cdk4 activity was determined.

[2] = target: T2, cyclin H-Cdk7 (Homo sapiens, UniProt P50613); test: Cdk7 inhibitory action: cyclin H-Cdk7 kinase activity; type: biochemical; conditions: cyclin H-Cdk7, 50 μM ATP
T2 construct: made in house; host or cells: insect cell Sf9 (baculovirus)
T2 sequence (P50613 whole entry): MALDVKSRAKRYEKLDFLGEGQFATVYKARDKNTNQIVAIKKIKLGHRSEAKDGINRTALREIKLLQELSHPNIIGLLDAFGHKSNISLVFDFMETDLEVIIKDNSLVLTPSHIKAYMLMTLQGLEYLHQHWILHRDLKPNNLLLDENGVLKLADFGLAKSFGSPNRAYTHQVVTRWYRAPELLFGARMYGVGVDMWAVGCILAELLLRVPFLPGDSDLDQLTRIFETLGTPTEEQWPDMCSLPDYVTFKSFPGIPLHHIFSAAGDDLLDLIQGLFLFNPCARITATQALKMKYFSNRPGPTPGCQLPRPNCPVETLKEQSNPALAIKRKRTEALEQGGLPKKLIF
T2 sequence (P51946 whole entry partner): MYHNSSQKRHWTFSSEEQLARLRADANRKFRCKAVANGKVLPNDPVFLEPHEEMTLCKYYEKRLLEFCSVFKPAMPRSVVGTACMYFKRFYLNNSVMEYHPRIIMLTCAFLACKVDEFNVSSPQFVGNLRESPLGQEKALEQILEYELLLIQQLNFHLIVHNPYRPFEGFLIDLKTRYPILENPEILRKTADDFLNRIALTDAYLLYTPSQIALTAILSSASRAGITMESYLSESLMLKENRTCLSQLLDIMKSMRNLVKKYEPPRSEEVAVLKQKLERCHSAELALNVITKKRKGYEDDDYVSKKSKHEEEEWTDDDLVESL
From the text: The cDNA of Cdk7, and the cDNA of a fusion protein of cyclin H, an activating factor of Cdk7, and glutathione S-transferase, were integrated into a baculovirus expression vector to prepare a recombinant baculovirus. This was co-transfected into insect cell Sf9 to express an active complex of the cyclin H/glutathione S-transferase fusion protein-Cdk7 at a high level. The cells were recovered and solubilized, then the active complex was adsorbed onto Glutathione Sepharose, and a cyclin H-Cdk7 active complex was recovered using Precision Protease.
For the measurement of the activity of cyclin H-Cdk7, a synthetic peptide ([…] was used as the substrate.
(§1) The reaction was performed by partially modifying the method of Kitagawa et al. [Oncogene, Vol. 7, 1067-1074 (1992)]. The volume of the reaction solution was 21.1 μL, and to the R buffer, purified cyclin H-Cdk7, 25 μM of the substrate peptide, 50 μM of non-labeled adenosine triphosphate (ATP), and 1 μCi of [γ-33P]-labeled ATP (2000 to 4000 Ci/mmole) were added to react at 30° C. for 45 minutes. Then, 10 μL of 350 mM phosphate buffer was added to the reaction system to terminate the reaction. The substrate peptide was adsorbed onto P81 paper filter on a 96-well plate, and then washed several times with 75 mM phosphate buffer. The radioactivity of the substrate peptide was measured with a liquid scintillation counter.
Addition of the compound according to the invention to the reaction system was carried out by first preparing a dilution series of solutions of the compound in dimethylsulfoxide (DMSO), and adding 1.1 μL of the dilutions. A control was provided by adding 1.1 μL of DMSO to the reaction system.
A representative compound of the compounds according to the invention was selected, and the IC50 value of this compound for the cyclin H-Cdk7 activity was determined.

[3] = tested on: JURKAT; test: Inhibitory action against cell proliferation (WST-8), JURKAT; type: cell-based; conditions: Homo sapiens, 72 h, Jurkat cells, 3 days culture, read-out: concentration for 50% inhibition of cell proliferation (IC50), Jurkat
Experimental: Clinically isolated cancer cell lines EOL-1, KU812 and JURKAT were cultured in RPMI1640 medium containing 10% fetal calf serum at 37° C. in the presence of 5% CO2 under an atmosphere of saturated steam.
The inhibitory action against cell proliferation was measured by modifying the method of Skehan et al. [J. Natl. Cancer Inst., Vo. 82, 1107-1112 (1990)] according to the method of Ishiyama et al. [Talanta, Vol. 44, 1299 (1997)]. 100 μL each of cell culture medium containing 1×10^3 live cells of EOL-1, KU812 and JURKAT, respectively, was dispensed into each well of a 96-well cell culture dish, and the cells were cultured overnight. On the next day, a dilution series of solutions in DMSO was prepared from a DMSO solution of the compound of each Example. Then, the dilution series of solutions or DMSO only as a control for no drug addition were separately added to the medium for cell culture. Finally, 100 μL each of the culture medium containing either the dilution series of solutions of the compounds or DMSO only, was added to the cells which had been cultured in a 96-well dish, and then the cells were further cultured for 3 days.
After adding 20 μL each of WST-8 (Kishida Chemical Co., Ltd.) to each well and culturing the cells for another 2 hours, the optical densities at 450 nm were measured against a reference wavelength of 650 nm, and were compared with the control group. The results obtained by determining the concentrations for 50% inhibition of cell proliferation (IC50 (nM)) of the compounds of Examples are presented in the following Table 4.

[4] = target: T3, cyclin T1-Cdk9 (Homo sapiens, UniProt P50750); test: Cdk9 inhibitory action: cyclin T1-Cdk9 kinase activity; type: biochemical; conditions: cyclin T1-Cdk9, 50 μM ATP
T3 construct: made in house; host or cells: insect cell Sf9 (baculovirus)
T3 sequence (P50750 whole entry): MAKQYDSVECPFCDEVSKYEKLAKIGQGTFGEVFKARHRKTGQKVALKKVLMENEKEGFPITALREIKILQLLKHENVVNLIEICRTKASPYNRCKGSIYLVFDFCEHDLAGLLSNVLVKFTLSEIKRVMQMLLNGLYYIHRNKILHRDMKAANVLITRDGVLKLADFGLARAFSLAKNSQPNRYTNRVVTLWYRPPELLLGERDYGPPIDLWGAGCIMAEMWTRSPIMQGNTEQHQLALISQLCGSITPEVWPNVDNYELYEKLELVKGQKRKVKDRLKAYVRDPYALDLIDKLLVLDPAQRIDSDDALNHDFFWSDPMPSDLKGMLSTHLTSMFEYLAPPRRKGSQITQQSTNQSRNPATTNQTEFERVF
T3 sequence (O60563 whole entry partner): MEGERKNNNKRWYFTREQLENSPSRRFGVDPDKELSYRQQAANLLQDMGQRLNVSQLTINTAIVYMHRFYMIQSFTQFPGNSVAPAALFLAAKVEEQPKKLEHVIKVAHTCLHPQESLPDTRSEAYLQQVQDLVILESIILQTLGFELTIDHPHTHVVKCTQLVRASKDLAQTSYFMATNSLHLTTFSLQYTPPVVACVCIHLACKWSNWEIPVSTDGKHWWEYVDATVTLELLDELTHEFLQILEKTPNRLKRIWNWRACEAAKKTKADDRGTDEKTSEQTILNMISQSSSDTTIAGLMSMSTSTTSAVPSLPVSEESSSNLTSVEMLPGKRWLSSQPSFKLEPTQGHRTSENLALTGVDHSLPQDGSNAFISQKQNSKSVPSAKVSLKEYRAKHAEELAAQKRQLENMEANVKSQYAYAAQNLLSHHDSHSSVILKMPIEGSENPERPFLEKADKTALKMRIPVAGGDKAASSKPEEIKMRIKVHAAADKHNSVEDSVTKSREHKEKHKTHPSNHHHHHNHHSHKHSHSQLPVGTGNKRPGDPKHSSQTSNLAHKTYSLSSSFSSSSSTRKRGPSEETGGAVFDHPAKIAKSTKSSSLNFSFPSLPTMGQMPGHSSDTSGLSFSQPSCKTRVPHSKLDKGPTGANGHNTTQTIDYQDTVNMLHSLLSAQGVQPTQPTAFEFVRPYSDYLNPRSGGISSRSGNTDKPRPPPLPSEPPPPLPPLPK
From the text: The cDNA of Cdk9, and the cDNA of a fusion protein of cyclin T1, an activating factor of Cdk9, and glutathione S-transferase, were integrated into a baculovirus expression vector to prepare a recombinant baculovirus. This was co-transfected into insect cell Sf9 to express an active complex of the cyclin T1/glutathione S-transferase fusion protein-Cdk9 at a high level. The cells were recovered and solubilized, and the active complex was adsorbed onto Glutathione Sepharose, and then was purified by elution with 10 mM reductive glutathione. The solution containing the eluted active complex was dialyzed against B buffer (composition: 20 mM Tris-hydrochloric acid buffer (pH 7.4)/200 mM sodium chloride/0.1% Tween-20/10 mM 2-mercaptoethanol/1 mM dithiothreitol/10% glycerol) to remove the reductive glutathione.
For the measurement of the activity of cyclin T1-Cdk9, a synthetic peptide ([…] was used as the substrate.
as §1, with “cyclin T1-Cdk9,” for “cyclin H-Cdk7,”, “and 0.5” for “and 1”, “for 20” for “for 45”
Addition of the compound according to the invention to the reaction system was carried out by first preparing a dilution series of solutions of the compound in dimethylsulfoxide (DMSO), and adding […] of the dilutions. A control was provided by adding 1.1 μL of DMSO to the reaction system.
A representative compound of the compounds according to the invention was selected, and the IC50 value (nM) of this compound for the cyclin T1-Cdk9 activity was determined.

pIC50 [1]	pIC50 [2]	pIC50 [3]	pIC50 [4]	SMILES
7.89	6.11	7.08	5.80	Cc1cc(-c2cnc(Nc3cnc(CN(C)CCO)cn3)s2)nc(Sc2ccccc2Cl)n1 [Example 114, 5-[2-(2-chlorophenylthio)-6-methyl-4-pyrimidinyl]-2-{5-[(2-hydroxyethyl)methylamino]methyl-2-pyrazinyl}amino-1,3-thiazole]
8.00	6.31	7.14	6.49	Cc1cc(-c2cnc(Nc3cnc(CN4CCC[C@H]4CO)cn3)s2)nc(Sc2ccccc2Cl)n1 [Example 110, (2S)-5-[2-(2-chlorophenylthio)-6-methyl-4-pyrimidinyl]-2-[5-(2-hydroxymethyl-1-pyrrolidinyl)methyl-2-pyrazinyl]amino-1,3-thiazole]
8.26	6.68	6.80	6.48	CCNCc1cnc(Nc2ncc(-c3cc(C)nc(NC4CCCCC4)n3)s2)cn1 [Example 52, 5-[2-(cyclohexylamino)-6-methyl-4-pyrimidinyl]-2-[5-(ethylamino)methyl-2-pyrazinyl]amino-1,3-thiazole]
8.06	6.08	7.20	6.60	CNCc1cnc(Nc2ncc(-c3cc(C)nc(Sc4ccccc4Cl)n3)s2)cn1 [Example 107]
7.70	6.00	7.05	6.01	Cc1cc(-c2cnc(Nc3cnc(CN4CC[C@@H](O)C4)cn3)s2)nc(Sc2ccccc2Cl)n1 [Example 118, (3R)-5-[2-(2-chlorophenylthio)-6-methyl-4-pyrimidinyl]-2-[5-(3-hydroxy-1-pyrrolidinyl)methyl-2-pyrazinyl]amino-1,3-thiazole]
8.28	6.43	–	6.74	CCNCc1cnc(Nc2ncc(-c3cc(C)nc(Sc4ccccc4Cl)n3)s2)cn1 [Example 105, 5-[2-(2-chlorophenylthio)-6-methyl-4-pyrimidinyl]-2-[5-(ethylamino)methyl-2-pyrazinyl]amino-1,3-thiazole]
8.08	6.25	7.20	6.51	Cc1cc(-c2cnc(Nc3cnc(CNC(C)C)cn3)s2)nc(Sc2ccccc2Cl)n1 [Example 106, 5-[2-(2-chlorophenylthio)-6-methyl-4-pyrimidinyl]-2-[5-(isopropylamino)methyl-2-pyrazinyl]amino-1,3-thiazole]
7.89	6.25	7.14	6.06	Cc1cc(-c2cnc(Nc3cnc(CN4CCCC4)cn3)s2)nc(Sc2ccccc2Cl)n1 [Example 113, 5-[2-(2-chlorophenylthio)-6-methyl-4-pyrimidinyl]-2-[5-(1-pyrrolidinyl)methyl-2-pyrazinyl]amino-1,3-thiazole]
